Data reported in patent US20260130395A1, “Water Dispersible Botanical Compositions” (Aquila Black Limited, priority 2021, published 2026).

Columns and labels:
[1] = Stability of cannabinoid compounds and Vitamin E components in Beverage 1 (AB White) by LCMSMS; assay type: physicochemical; conditions: for Stability of Plant-Derived Cannabinoid Compounds in AB White, 8° C.: AB White stored at 8° C.; for Stability of Plant-Derived Cannabinoid Compounds in AB White, 21-25° C.: AB White stored at 21-25° C.
[2] = Stability of cannabinoid entourage and Vitamin E components of the powder concentrate by LCMSMS; assay type: physicochemical; conditions: powder stored at 21-25° C.
Description: At each time period, 0.05 g of powder was dissolved in 10 ml-15 of ethanol, diluted to fall within the analytical range, and injected into the LCMSMS for analysis.

In the case of `C=C(C)[C@@H]1CCC(C)=C[C@H]1c1c(O)cc(CCCCC)c(C(=O)O)c1O` [CBDA, cannabidiolic acid], the “Stability of Plant-Derived Cannabinoid Compounds in AB White, 8° C.” value (“Stability … 8° C.” for short) ([1]; 0 days) was 1.75 µg/mL, the “Stability … 8° C.” value ([1]; 1 days) was 1.72 µg/mL and the “Stability … 8° C.” value ([1]; 2 days) was 1.76 µg/mL. The “Stability … 8° C.” value ([1]; 3 days) was 1.76 µg/mL, the “Stability … 8° C.” value ([1]; 5 days) was 1.71 µg/mL and the “Stability … 8° C.” value ([1]; 8 days) was 1.75 µg/mL. The “Stability … 8° C.” value ([1]; 9 days) was 1.73 µg/mL, the “Stability … 8° C.” value ([1]; 10 days) was 1.76 µg/mL and the “Stability … 8° C.” value ([1]; 11 days) was 1.70 µg/mL. For the same compound, the “Stability … 8° C.” value ([1]; 12 days) was 1.71 µg/mL, the “Stability … 8° C.” value ([1]; 15 days) was 1.74 µg/mL and the “Stability … 8° C.” value ([1]; 16 days) was 1.73 µg/mL. The “Stability … 8° C.” value ([1]; 17 days) was 1.73 µg/mL, the “Stability … 8° C.” value ([1]; 18 days) was 1.76 µg/mL and the “Stability … 8° C.” value ([1]; 19 days) was 1.74 µg/mL. For the same compound, the “Stability … 8° C.” value ([1]; 22 days) was 1.70 µg/mL, the “Stability … 8° C.” value ([1]; 23 days) was 1.76 µg/mL and the “Stability … 8° C.” value ([1]; 24 days) was 1.72 µg/mL. For the same compound, the “Stability … 8° C.” value ([1]; 25 days) was 1.75 µg/mL, the “Stability … 8° C.” value ([1]; 26 days) was 1.75 µg/mL and the “Stability … 8° C.” value ([1]; 29 days) was 1.75 µg/mL. The “Stability … 8° C.” value ([1]; 30 days) was 1.76 µg/mL, the “Stability … 8° C.” value ([1]; 60 days) was 1.70 µg/mL and the “Stability … 8° C.” value ([1]; 90 days) was 1.70 µg/mL. The “Stability … 8° C.” value ([1]; 120 days) was 1.67 µg/mL, the “Stability … 8° C.” value ([1]; 150 days) was 1.71 µg/mL and the “Stability … 8° C.” value ([1]; 180 days) was 1.75 µg/mL. For the same compound, the “Stability … 8° C.” value ([1]; 210 days) was 1.68 µg/mL, the “Stability … 8° C.” value ([1]; 240 days) was 1.70 µg/mL and the “Stability … 8° C.” value ([1]; 270 days) was 1.70 µg/mL. For the same compound, the “Stability … 8° C.” value ([1]; 300 days) was 1.69 µg/mL, the “Stability … 8° C.” value ([1]; 330 days) was 1.70 µg/mL and the “Stability … 8° C.” value ([1]; 360 days) was 1.70 µg/mL. The “Stability … 8° C.” value ([1]; 390 days) was 1.70 µg/mL, the “Stability … 8° C.” value ([1]; 420 days) was 1.67 µg/mL and the “Stability … 8° C.” value ([1]; 450 days) was 1.68 µg/mL. The “Stability … 8° C.” value ([1]; 480 days) was 1.66 µg/mL, the “Stability … 8° C.” value ([1]; 510 days) was 1.61 µg/mL and the “Stability … 8° C.” value ([1]; 540 days) was 1.61 µg/mL. For the same compound, the “Stability … 8° C.” value ([1]; 570 days) was 1.60 µg/mL, the “Stability of Plant-Derived Cannabinoid Compounds in AB White, 21-25° C.” value (shortened to “Stability … 21-25° C.”) ([1]; 0 days) was 1.75 µg/mL and the “Stability … 21-25° C.” value ([1]; 1 days) was 1.76 µg/mL. For the same compound, the “Stability … 21-25° C.” value ([1]; 2 days) was 1.70 µg/mL, the “Stability … 21-25° C.” value ([1]; 3 days) was 1.71 µg/mL and the “Stability … 21-25° C.” value ([1]; 5 days) was 1.69 µg/mL. For the same compound, the “Stability … 21-25° C.” value ([1]; 8 days) was 1.77 µg/mL, the “Stability … 21-25° C.” value ([1]; 9 days) was 1.74 µg/mL and the “Stability … 21-25° C.” value ([1]; 10 days) was 1.73 µg/mL. For the same compound, the “Stability … 21-25° C.” value ([1]; 11 days) was 1.76 µg/mL, the “Stability … 21-25° C.” value ([1]; 12 days) was 1.74 µg/mL and the “Stability … 21-25° C.” value ([1]; 15 days) was 1.69 µg/mL. For the same compound, the “Stability … 21-25° C.” value ([1]; 16 days) was 1.75 µg/mL, the “Stability … 21-25° C.” value ([1]; 17 days) was 1.72 µg/mL and the “Stability … 21-25° C.” value ([1]; 18 days) was 1.75 µg/mL. The “Stability … 21-25° C.” value ([1]; 19 days) was 1.70 µg/mL, the “Stability … 21-25° C.” value ([1]; 22 days) was 1.70 µg/mL and the “Stability … 21-25° C.” value ([1]; 23 days) was 1.73 µg/mL. The “Stability … 21-25° C.” value ([1]; 24 days) was 1.70 µg/mL, the “Stability … 21-25° C.” value ([1]; 25 days) was 1.73 µg/mL and the “Stability … 21-25° C.” value ([1]; 26 days) was 1.75 µg/mL. The “Stability … 21-25° C.” value ([1]; 29 days) was 1.76 µg/mL, the “Stability … 21-25° C.” value ([1]; 30 days) was 1.71 µg/mL and the “Stability … 21-25° C.” value ([1]; 60 days) was 1.68 µg/mL. The “Stability … 21-25° C.” value ([1]; 90 days) was 1.67 µg/mL, the “Stability … 21-25° C.” value ([1]; 120 days) was 1.66 µg/mL and the “Stability … 21-25° C.” value ([1]; 150 days) was 1.64 µg/mL. The “Stability … 21-25° C.” value ([1]; 180 days) was 1.69 µg/mL, the “Stability … 21-25° C.” value ([1]; 210 days) was 1.73 µg/mL and the “Stability … 21-25° C.” value ([1]; 240 days) was 1.73 µg/mL. The “Stability … 21-25° C.” value ([1]; 270 days) was 1.71 µg/mL, the “Stability … 21-25° C.” value ([1]; 300 days) was 1.73 µg/mL and the “Stability … 21-25° C.” value ([1]; 330 days) was 1.72 µg/mL. The “Stability … 21-25° C.” value ([1]; 360 days) was 1.69 µg/mL, the “Stability … 21-25° C.” value ([1]; 390 days) was 1.67 µg/mL and the “Stability … 21-25° C.” value ([1]; 420 days) was 1.64 µg/mL. For the same compound, the “Stability … 21-25° C.” value ([1]; 450 days) was 1.70 µg/mL, the “Stability … 21-25° C.” value ([1]; 480 days) was 1.63 µg/mL and the “Stability … 21-25° C.” value ([1]; 510 days) was 1.66 µg/mL. For the same compound, the “Stability … 21-25° C.” value ([1]; 540 days) was 1.63 µg/mL, the “Stability … 21-25° C.” value ([1]; 570 days) was 1.61 µg/mL and the “Stability of Plant-Derived Cannabinoid Compounds in Powder Concentrate” value (“Stability … in Powder Concentrate” below) ([2]; 0 days) was 0.410 mg/g powder. For the same compound, the “Stability … in Powder Concentrate” value ([2]; 1 days) was 0.412 mg/g powder, the “Stability … in Powder Concentrate” value ([2]; 2 days) was 0.407 mg/g powder and the “Stability … in Powder Concentrate” value ([2]; 3 days) was 0.406 mg/g powder. The “Stability … in Powder Concentrate” value ([2]; 5 days) was 0.414 mg/g powder, the “Stability … in Powder Concentrate” value ([2]; 8 days) was 0.415 mg/g powder and the “Stability … in Powder Concentrate” value ([2]; 9 days) was 0.410 mg/g powder. The “Stability … in Powder Concentrate” value ([2]; 10 days) was 0.418 mg/g powder, the “Stability … in Powder Concentrate” value ([2]; 11 days) was 0.415 mg/g powder and the “Stability … in Powder Concentrate” value ([2]; 12 days) was 0.396 mg/g powder. For the same compound, the “Stability … in Powder Concentrate” value ([2]; 15 days) was 0.399 mg/g powder, the “Stability … in Powder Concentrate” value ([2]; 16 days) was 0.427 mg/g powder and the “Stability … in Powder Concentrate” value ([2]; 17 days) was 0.421 mg/g powder. For the same compound, the “Stability … in Powder Concentrate” value ([2]; 18 days) was 0.418 mg/g powder, the “Stability … in Powder Concentrate” value ([2]; 19 days) was 0.414 mg/g powder and the “Stability … in Powder Concentrate” value ([2]; 22 days) was 0.419 mg/g powder. The “Stability … in Powder Concentrate” value ([2]; 23 days) was 0.396 mg/g powder, the “Stability … in Powder Concentrate” value ([2]; 24 days) was 0.403 mg/g powder and the “Stability … in Powder Concentrate” value ([2]; 25 days) was 0.401 mg/g powder. For the same compound, the “Stability … in Powder Concentrate” value ([2]; 26 days) was 0.397 mg/g powder, the “Stability … in Powder Concentrate” value ([2]; 29 days) was 0.426 mg/g powder and the “Stability … in Powder Concentrate” value ([2]; 30 days) was 0.405 mg/g powder. For the same compound, the “Stability … in Powder Concentrate” value ([2]; 60 days) was 0.418 mg/g powder, the “Stability … in Powder Concentrate” value ([2]; 90 days) was 0.413 mg/g powder and the “Stability … in Powder Concentrate” value ([2]; 120 days) was 0.403 mg/g powder. For the same compound, the “Stability … in Powder Concentrate” value ([2]; 150 days) was 0.412 mg/g powder, the “Stability … in Powder Concentrate” value ([2]; 180 days) was 0.422 mg/g powder and the “Stability … in Powder Concentrate” value ([2]; 210 days) was 0.427 mg/g powder. For the same compound, the “Stability … in Powder Concentrate” value ([2]; 240 days) was 0.417 mg/g powder, the “Stability … in Powder Concentrate” value ([2]; 270 days) was 0.424 mg/g powder and the “Stability … in Powder Concentrate” value ([2]; 300 days) was 0.409 mg/g powder. For the same compound, the “Stability … in Powder Concentrate” value ([2]; 330 days) was 0.424 mg/g powder, the “Stability … in Powder Concentrate” value ([2]; 360 days) was 0.413 mg/g powder and the “Stability … in Powder Concentrate” value ([2]; 390 days) was 0.407 mg/g powder. The “Stability … in Powder Concentrate” value ([2]; 420 days) was 0.420 mg/g powder, the “Stability … in Powder Concentrate” value ([2]; 450 days) was 0.398 mg/g powder and the “Stability … in Powder Concentrate” value ([2]; 480 days) was 0.418 mg/g powder. The “Stability … in Powder Concentrate” value ([2]; 510 days) was 0.411 mg/g powder, the “Stability … in Powder Concentrate” value ([2]; 540 days) was 0.425 mg/g powder and the “Stability … in Powder Concentrate” value ([2]; 570 days) was 0.408 mg/g powder.
